These results are taken from patent US11332438B2, “Creatine prodrugs, compositions and methods of use thereof” (Ultragenyx Pharmaceutical Inc., priority 2017, dated 2022).

Where two headings read alike, the source gives them in different places.

Data set [1] in a line: Chemical stability in phosphate buffered saline (PBS). It is filed as physicochemical. Particulars: Table 2A, 50 μM prodrug. In a few lines: (§1)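 Incubations used 50 μM compound at 37 °C in phosphate buffered saline, fasted simulated intestinal fluid without pancreatin, or fasted simulated gastric fluid without pepsin.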
Data set [2] can be described thus: Chemical stability in simulated gastric fluid (SGF) without pepsin. Type of data set: physicochemical. To be noted: Table 2A, 50 μM prodrug. Summed up:
as §1

Data set [3] can be described thus: Chemical stability in simulated intestinal fluid (SIF) without pancreatin. It is filed as physicochemical. Particulars: Table 2A, 50 μM prodrug. How it is done:
Chemical stability of creatine prodrugs in phosphate buffered saline (PBS), simulated intestinal fluid (SIF) without pancreatin, simulated gastric fluid (SGF) without pepsin were determined by LC-UV, LC-CAD, LC-UV-CAD or LC-MS/MS as appropriate. Creatine prodrugs of the present disclosure (50 μM) were incubated at 37° C. according to described protocols and prodrug levels were compared between t=0, t=15, t=60, and t=120 mins by peak area ratio to determine the percentage remained at t=120 mins (2 h).
Protocol for PBS, SIF and SGF stability for screening:
Prodrugs (50 μM) were incubated in PBS, FaSSIF (Biorelevant) or FaSSGF (Biorelevant) at 37° C.

Data set [4] can be described thus: Plasma stability, mouse plasma. It is filed as in vitro ADME. To be noted: Table 2A, 37 °C, read-out: Plasma Stability Mouse t1/2. In a few lines: (§2)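 Half-life (min) from LC-MS/MS of acetonitrile-quenched samples taken at t=0, 2, 5, 15, 30 min. Compound dosed at 1 µM final into plasma pre-warmed to 37 °C, pH set to 7.4 where required; incubations at 37 °C.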
Data set [5] in a line: Liver microsome stability, mouse. It is filed as in vitro ADME. Particulars: liver microsomes, pH 7.4, Table 2A, read-out: Microsome Stability Mouse t1/2. Summed up: (§3)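 Remaining compound measured by LC/MS after acetonitrile/internal-standard quench at 0–60 min time points (0, 5, 10, 20, 30, 60). Incubations used mouse or human liver microsomes in pH 7.4 potassium phosphate/EDTA buffer with NADPH; a 60-min sample without NADPH served as control.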

Data set [6] can be described thus: Liver microsome stability, human. Type of data set: in vitro ADME. Particulars: liver microsomes, pH 7.4, Table 2A, read-out: Microsome Stability Human t1/2. In a few lines:
as §3

Data set [7] in a line: Plasma stability, human plasma. It is filed as in vitro ADME. To be noted: Table 2A, 37 °C, read-out: Plasma Stability Human t1/2. In a few lines:
as §2

The conditions of data set [8]: rcm bond, DCM, 50.0 °C.
The conditions of data set [9]: rcm bond, Grubbs II, 50.0 °C.
Data set [10] in a line: In vivo IV dosing in CrT KO mice: prodrug, d3-Cr and d3-Crn in brain (Table 5). How it is done: A creatine prodrug is administered as an intravenous bolus injection to groups of three to six adult male CD1 mice at an appropriate creatine prodrug dose equivalent per kg body weight. Animals are conscious at the time of the experiment. Blood samples (0.3 mL) are obtained via a jugular vein cannula at intervals over 8 hours following IV dosing. Blood is processed into plasma, then the plasmais immediately frozen at −80° C. until analyzed by LC-MS/MS. Samples may also be taken form the CSF or other appropriate biological fluid. Brains were collected and flash frozen immediately in liquid nitrogen. Brains were homogenized in 100 mM KPI buffer with a cocktail of anti-proteases on the same day as the sample preparation required for LC-MS/MS analysis.
Several prodrugs with either free COOH group and ester linkage and macrocycles were selected for IV dosing in animal study to assess PK and d3-Cr release in brain in vivo. Prodrugs were IV dosed in CrT KO mice at 10, 15, or 25 mg/kg in animal studies. Mouse brain homogenates (MBH) were prepared from brains collected from mice after dosing. Levels of prodrug, d3-Cr and d3-Crn were quantified in brain and expressed in brain concentration (for macrocycle prodrugs) or AUC (for linear prodrugs) over time. Very few prodrugs were detected in MBH.

As for `[2H]C([2H])([2H])N(CC(=O)[O-])C(=N)NC(=O)CCCCC/C=C\CCCCCCCCCC.[Li+]` [Compound 24], the “Chemical Stability PBS % T0 at 2 hours at 37 °C.” value (“Chemical Stability PBS % T0” below) in data set [1] worked out at 150%. In data set [2], the “Chemical Stability SGF, no enzyme % T0 at 2 hours at 37 °C.” value (shortened to “Chemical Stability SGF, no enzyme % T0”) is given as 39%. Besides, the “Chemical Stability SIF, no enzyme % T0 at 2 hours at 37 °C.” value (“Chemical Stability SIF, no enzyme % T0” below) in [3] was 74%. Also, the half-life in data set [4] and in [7] was more than 3 h each time. Further, the half-life at 10 μM amounted to 1.37 h in data set [5] and 1.3 h in data set [6].

Regarding `CN1CC(=O)OC(C)(C)CCCC=CCCC(=O)NC1=NC(=O)OCc1ccccc1`, the ring closure, isolated yield in data set [8] (from [2H]C([2H])([2H])N(CC(=O)OC(C)(C)CCCC=C)C(=NC(=O)OCc1ccccc1)NC(=O)CCC=C, 15-membered ring, Grubbs II) turned out to be 50%.

On to `[2H]C([2H])([2H])N1CC(=O)OCCCCCCCC/C=C/CCCCCCCC(=O)NC1=NC(=O)OCc1ccccc1`, for which the ring closure, yield of all isomers in data set [9] (from [2H]C([2H])([2H])N(CC(=O)OCCCCCCCCC=C)C(=NC(=O)OCc1ccccc1)NC(=O)CCCCCCCC=C, dichloromethane, 1.79 mM) turned out to be 78%.

With `[2H]C([2H])([2H])N1CC(=O)OC(C)(C)CC=CCCCCCCCC(=O)N/C1=N/C(=O)OCc1ccccc1`, the ring closure, yield of all isomers in data set [9] (from [2H]C([2H])([2H])N(CC(=O)OC(C)(C)CC=C)/C(=N\C(=O)OCc1ccccc1)NC(=O)CCCCCCCC=C, dichloromethane, 2.0 mM) was 79%.

Compound `[2H]C([2H])([2H])N1CC(=O)OC(CC)/C=C/CCCCCCCC(=O)N/C1=N/C(=O)OC(C)(C)C` (centres unmarked) registered a ring closure, yield of all isomers in data set [9] (from [2H]C([2H])([2H])N(CC(=O)OC(C=C)CC)/C(=N\C(=O)OC(C)(C)C)NC(=O)CCCCCCCC=C, DCM, 2.82 mM) of 86%.

Regarding `[2H]C([2H])([2H])N(CC(=O)[O-])C(=N)NC(=O)CCC/C=C\C/C=C\C/C=C\C/C=C\CCCCC.[Na+]` [Compound 22], the “Chemical Stability PBS % T0” value in [1] is given as 35%. The “Chemical Stability SGF, no enzyme % T0” value in [2] is given as 30%. Moreover, the “Chemical Stability SIF, no enzyme % T0” value in data set [3] is recorded as 86%. Further, the half-life was more than 3 h in [4] and 2.17 h in data set [7]. Moreover, the figures for the half-life at 10 μM in data set [5] and in data set [6] were 0.15 h and 0.4 h, respectively.

Compound `[2H]C([2H])([2H])N(C(N)=NC(=O)OCc1ccccc1)N(CC(=O)O)C(=N)NC(=O)CCCCCC=C` had a ring closure, isolated yield in [8] (the molecule shown is the open-chain precursor, 17-membered ring, Grubbs II (10 mol%), 2.4 mM) of 33%.

On to `[2H]C([2H])([2H])N1CC(=O)OC2(CC/C=C/CCCCCC(=O)N/C1=N/C(=O)OCc1ccccc1)CCOC2` (centres unmarked), for which the ring closure, isolated yield in [8] (from [2H]C([2H])([2H])N(CC(=O)OC1(CCC=C)CCOC1)/C(=N\C(=O)OCc1ccccc1)NC(=O)CCCCCC=C, 17-membered ring, Grubbs II (10 mol%), 1.95 mM, 2.0 h) was 78%.

As for `[2H]C([2H])([2H])N(CC(=O)[O-])C(=N)NC(=O)CCCCCCCCCC.[Na+]` [Compound 4], the “Chemical Stability PBS % T0” value in [1] turned out to be 69%. Also, in data set [2], the “Chemical Stability SGF, no enzyme % T0” value is listed as 94%. Further, the “crossing of BBB (in words)” value in data set [10] (CrT KO mice, IV dosing) was “did not seem to cross BBB”. Besides, in data set [10] (IV 10 mg/kg, CrT KO mouse brain, BQL d3-Cr = 13.7 ng/mL), the “AUClast d3-Cr in the brain” value is recorded as “BQL”. Also, the “AUClast d3-Crn in the brain” value in [10] (IV 10 mg/kg, CrT KO mouse brain, BQL d3-Crn = 1.5 ng/mL) is recorded as “BQL”. In data set [10] (IV 10 mg/kg, CrT KO mouse brain, BQL prodrug = 41.2 ng/mL), the “AUClast prodrug in the brain” value was “BQL”. Besides, in data set [3], the “Chemical Stability SIF, no enzyme % T0” value is 61%.

With `[2H]C([2H])([2H])N1CC(=O)OC2(CC/C=C/CCCCCC(=O)NC1=NC(=O)OCc1ccccc1)CCOC2` (centres unmarked), the ring closure, yield of all isomers in data set [9] (from [2H]C([2H])([2H])N(CC(=O)OC1(CCC=C)CCOC1)C(=NC(=O)OCc1ccccc1)NC(=O)CCCCCC=C, dichloromethane, 1.95 mM) was determined as 78%.

Take “(Z)-tert-butyl-((E)-17-ethyl-4-trideuteriomethyl-2,7-dioxo-1-oxa-4,6-diazacycloheptadec-15-en-5-ylidene) carbamate”: the ring closure, isolated yield in [8] (17-membered ring, Grubbs II (20 mol%), 2.82 mM) was 86%.

In [9] (from [2H]C([2H])([2H])N(CC(=O)OC(C)C=C)/C(=N\C(=O)OC(C)(C)C)NC(=O)CCCCCCCC=C, DCM, 2.28 mM), `[2H]C([2H])([2H])N1CC(=O)OC(C)C=CCCCCCCCC(=O)N/C1=N/C(=O)OC(C)(C)C` (centres unmarked) gave a ring closure, yield of all isomers of 77%.

In the case of `[2H]C([2H])([2H])N(CC(=O)OCC)C(=N)NC(=O)CCCCCCCCCCCC` [Compound 46], the “Chemical Stability PBS % T0” value in data set [1] turned out to be 0%. Besides, the “Chemical Stability SGF, no enzyme % T0” value in [2] is given as 111%. In [3], the “Chemical Stability SIF, no enzyme % T0” value is 45%. The half-life in data set [4] and in data set [7] was less than 0.0833 h each time.

For the compound `[2H]C([2H])([2H])N1CC(=O)OC2(CCC=CCCCCCC(=O)NC1=NC(=O)OCc1ccccc1)CCCC2`, the ring closure, yield of all isomers in [9] (from [2H]C([2H])([2H])N(CC(=O)OC1(CCC=C)CCCC1)C(=NC(=O)OCc1ccccc1)NC(=O)CCCCCC=C, dichloromethane, 1.95 mM) turned out to be 84%.

`CN1CC(=O)OC(C)(C)CC=CCCCCCCCC(=O)NC1=NC(=O)OCc1ccccc1`: the ring closure, isolated yield in data set [8] (from [2H]C([2H])([2H])N(CC(=O)OC(C)(C)CC=C)/C(=N\C(=O)OCc1ccccc1)NC(=O)CCCCCCCC=C, 18-membered ring, Grubbs II (10 mol%), 2.0 mM, 2.0 h) was found to be 79%.

`[2H]C([2H])([2H])N1CC(=O)OC2(CCC=CCCCCCC(=O)N/C1=N/C(=O)OCc1ccccc1)CCC2` displayed a ring closure, yield of all isomers in data set [9] (from [2H]C([2H])([2H])N(CC(=O)OC1(CCC=C)CCC1)/C(=N\C(=O)OCc1ccccc1)NC(=O)CCCCCC=C, dichloromethane, 2.4 mM) of 33%.
